Results reported in paper PMC4207410, “Clicked Cinnamic/Caffeic Esters and Amides as Radical Scavengers and 5-Lipoxygenase Inhibitors” (International Journal of Medicinal Chemistry, 2014).

Tests used:
[1] = Antiradical activity assay (DPPH radical scavenging); settings: DPPH in ethanol, 30 min in the dark at room temperature, absorbance 520 nm; mean [SD] of 2 experiments
Protocol: The radical scavenging activity of test compounds was measured as previously described using 2,2-diphenyl-1-picrylhydrazyl (DPPH) as a stable radical with slight modifications. Particular care was taken in the preparation of the control (DPPH reagent + ethanol as a diluent without test compounds). Controls with O.D. of 0.350-0.360 at 520 nm were deemed as acceptable to avoid variations in IC50 calculations. 1 mL of DPPH in ethanol ([…]) was mixed with 1 mL of the test compounds at the indicated concentrations or their diluent (ethanol). Each mixture was then shaken vigorously and held in the dark for 30 min at room temperature. The absorbance of DPPH at 520 nm was then measured. The radical scavenging activity was expressed in terms of % inhibition of DPPH absorbance: (1) % Inhibition=[(Acontrol−Atest)/(Acontrol)] ×100, where A control is the absorbance of the control (DPPH solution without test compound) and A test is the absorbance of the test sample (DPPH solution plus compound). Data are expressed as means ± SD of 2 independent experiments, each performed in triplicate (Table 1). IC50 values were calculated from a sigmoidal concentration-response curve fitting model with a variable slope on GraphPad Prism 5 software (GraphPad software, San Diego, California).
Radical scavenging activities of analogous cinnamoyl esters 8a–h, cinnamoyl amides 9a–h, caffeoyl esters 15a–h, and caffeoyl amides 16a–h were assayed using 2,2-diphenyl-1-picrylhydrazyl (DPPH) as a stable radical and are expressed as IC50 concentrations in Table 1.

5-LO [2] = target: T1, 5-LO (Homo sapiens, UniProt P09917); assay: 5-LO products biosynthesis assay in whole HEK293 cells stably transfected with 5-LO and FLAP; assay type: cell-based; parameters: expressed in transfected cells; settings: for potency relative to Zileuton (1) in HEK293 cells: comparison of IC50 values
T1 sequence (P09917 1-674): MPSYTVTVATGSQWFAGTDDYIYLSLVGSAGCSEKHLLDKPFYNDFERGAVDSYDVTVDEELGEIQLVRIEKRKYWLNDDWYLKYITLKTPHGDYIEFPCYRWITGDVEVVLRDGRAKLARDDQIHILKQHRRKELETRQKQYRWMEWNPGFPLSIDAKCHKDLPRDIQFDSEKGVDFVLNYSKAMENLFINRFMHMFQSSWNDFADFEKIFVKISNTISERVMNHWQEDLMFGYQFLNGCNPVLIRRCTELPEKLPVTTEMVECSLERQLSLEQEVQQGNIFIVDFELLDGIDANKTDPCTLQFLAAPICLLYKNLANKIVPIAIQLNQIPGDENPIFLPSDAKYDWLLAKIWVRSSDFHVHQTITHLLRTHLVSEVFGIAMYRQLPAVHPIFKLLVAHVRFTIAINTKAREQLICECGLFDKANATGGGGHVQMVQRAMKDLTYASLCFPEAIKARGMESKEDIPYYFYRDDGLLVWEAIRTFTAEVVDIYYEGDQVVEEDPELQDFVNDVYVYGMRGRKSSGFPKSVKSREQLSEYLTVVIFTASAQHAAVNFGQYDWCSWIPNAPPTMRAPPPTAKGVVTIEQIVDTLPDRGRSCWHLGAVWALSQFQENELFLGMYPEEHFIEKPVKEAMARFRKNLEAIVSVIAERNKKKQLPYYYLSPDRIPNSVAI
Description: HEK293 cells were cotransfected with a pcDNA3.1 vector expressing 5-LO and a pBUDCE4.1 vector expressing 5-LO activating protein (FLAP) using Polyfect reagent (QIAGEN, Mississauga, ON, Canada) according to the manufacturer's protocol. Stable transfections of HEK293 cells were obtained following cell culture in the presence of Geneticin and Zeocin (Invitrogen, Burlington, ON, Canada). The resulting stable double transfectants were propagated in culture and aliquots were frozen. Once thawed for a series of experiments, each aliquot of cells is cultured for a maximum of 6 weeks before being discarded.
For cell stimulation of 5-LO products, transfected HEK293 cells were collected following trypsinization, washed and the cell pellet was resuspended in Hank's balanced salt solution (HBSS) (Lonza, Walkersville, MD) containing 1.6 mM CaCl2 at a concentration of 5 × 10^5 cells mL^−1. Cells were preincubated with each compound at the indicated concentration for 5 min at 37°C. Cells were then stimulated for 15 minutes at 37°C with the addition of 10 μM calcium ionophore A23187 (Sigma-Aldrich, Oakville, ON, Canada) and 10 μM arachidonic acid (Cayman Chemical, Ann Arbor, MI). Stimulations were stopped and processed on RP-HPLC as described previously. Data are expressed as means ± SEM of 3 independent experiments, each performed in duplicate (Figures 2 and 3).

5-LO [3] = target: T1, 5-LO; assay: 5-LO products biosynthesis assay in thapsigargin-stimulated human PMNL; assay type: cell-based; parameters: 5-LO is highly expressed in PMNL; endogenous in cells; host or cells: human PMNL from peripheral blood; settings: for potency relative to Zileuton (1) in human PMNL: comparison of IC50 values, thapsigargin-stimulated human PMNL; for IC50: read-out: Human PMNL IC50 (μM) [SD]
Protocol: Human PMNL were prepared from peripheral blood as described and were suspended in HBSS containing 1.6 mM CaCl2 (10^7 cells/mL) and preincubated with compounds for 5 min at 37°C in the presence of 1 U/mL of adenosine deaminase (Sigma-Aldrich, Oakville, ON, Canada). Cells were then stimulated for 15 min at 37°C with 1 μM thapsigargin (Sigma-Aldrich). Reactions were stopped by the addition of 0.5 volume of cold MeOH : CH3CN (1 : 1) and 50 ng of PGB2 as internal standard and samples were stored at −20°C until processing on octadecyl (C18) columns and RP-HPLC analysis as indicated above. Data are expressed as means ± SEM of 3 independent experiments, each performed in duplicate (Figures 4 and 5).
5-LO is highly expressed in PMNL and these cells are important producers of LTB4 [28, 32].

5-LO [4] = target: T1, 5-LO; parameters: expressed in transfected cells; method as in PMID 19152786; settings: 10 μM; cited from earlier work

Row | Structure (SMILES) | IC50 [1] [µM] | 5-LO inhibition in whole HEK293 cells (in words) (5-LO [2]; whole HEK293 cells, 1 μM) | melting point | 5-LO inhibition in stimulated human PMNL (in words) (5-LO [3]; stimulated human PMNL, 1 μM) | potency relative to Zileuton (1) in HEK293 cells (5-LO [2]) | potency relative to Zileuton (1) in human PMNL (5-LO [3]) | IC50 (5-LO [3]) [µM] | other results
1 | O=C(/C=C/c1ccc(O)c(O)c1)OCCc1ccccc1 [CAPE 2, caffeic acid phenethyl ester, reference compound] | 16.5 | – | – | – | – | – | – | 5-LO products synthesis, % of the control value (5-LO [2]; whole HEK293 cells, 1 μM): roughly 50%; inhibition at 1 µM (5-LO [2]; whole HEK293 cells, 1 μM, read-out: inhibition of LTs biosynthesis): ~50%; inhibition at 1 µM (5-LO [3]; read-out: inhibition of 5-LO, stimulated human PMNL, 1 μM): ~75%
2 | CC(c1cc2ccccc2s1)N(O)C(N)=O (stereo not drawn) [Zileuton 1, Zileuton, reference compound] | > 100 | little to no activity | – | – | – | – | – | inhibition at 10 µM (5-LO [2]; whole HEK293 cells, 10 μM (not shown)): ~25%
3 | O=C(/C=C/c1ccc(O)c(O)c1)OCCn1cc(COC(=O)/C=C/c2ccccc2)nn1 [compound 3, reference compound] | 12 | – | – | roughly equipotent with Zileuton | – | – | – | –
4 | O=C(/C=C/c1ccccc1)OCCn1cc(COC(=O)/C=C/c2ccc(O)c(O)c2)nn1 [compound 4, reference compound] | 13.4 | not significantly different than the control | – | roughly equipotent with Zileuton | – | – | – | 5-LO inhibition in whole cells (5-LO [4]): near complete 5-LO inhibition

Now from value to molecule, other results behind:

Row | IC50 [1] [µM] | 5-LO inhibition in whole HEK293 cells (in words) (5-LO [2]; whole HEK293 cells, 1 μM) | melting point | 5-LO inhibition in stimulated human PMNL (in words) (5-LO [3]; stimulated human PMNL, 1 μM) | potency relative to Zileuton (1) in HEK293 cells (5-LO [2]) | potency relative to Zileuton (1) in human PMNL (5-LO [3]) | IC50 (5-LO [3]) [µM] | Structure (SMILES) | other results
5 | 9.55 | – | 196 to 198 °C (dec.) | complete loss of inhibition | – | – | – | O=C(/C=C/c1ccc(O)c(O)c1)OCCn1ccnn1 [15a, (E)-2-(1H-1,2,3-Triazol-1-yl)ethyl 3-(3,4-Dihydroxyphenyl)acrylate] | –
6 | 13 | no significant 5-LO inhibitory activity | 220 °C (dec.) | – | equipotent to Zileuton | less active than Zileuton | 8.2 | Cc1ccc(-c2cn(CCNC(=O)/C=C/c3ccc(O)c(O)c3)nn2)cc1 [16f] | –
7 | 8.85 | – | 220 to 230 °C (dec.) | roughly equipotent with Zileuton | – | – | – | O=Cc1ccc(-c2cn(CCOC(=O)/C=C/c3ccc(O)c(O)c3)nn2)cc1 [15h] | –
8 | 9.4 | – | 238 to 240 °C (dec.) | – | four times more potent than Zileuton | equivalent to Zileuton | 3.3 | O=C(/C=C/c1ccc(O)c(O)c1)OCCn1cc(-c2ccc(F)cc2)nn1 [15g] | –
9 | 12 | no significant 5-LO inhibitory activity | 226 °C (dec.) | – | equipotent to Zileuton | less active than Zileuton | 8.8 | O=C(/C=C/c1ccc(O)c(O)c1)NCCn1cc(-c2ccc(F)cc2)nn1 [16g] | –
10 | 9.01 | – | 181 to 182 °C (dec.) | roughly equipotent with Zileuton | four times more potent than Zileuton | equivalent to Zileuton | 3.1 | Cc1ccc(-c2cn(CCOC(=O)/C=C/c3ccc(O)c(O)c3)nn2)cc1 [15f] | –
11 | 8.7 | – | 219 to 220 °C (dec.) | roughly equipotent with Zileuton | – | – | – | O=C(/C=C/c1ccc(O)c(O)c1)OCCn1cc(C2=CCCCC2)nn1 [15d] | –
